Reference: publication PMC4941420, “A Rational Approach for the Identification of Non-Hydroxamate HDAC6-Selective Inhibitors” (Scientific Reports, 2016)

Experiments:
[1] = test system: class I HDACs (HeLa nuclear extracts); test: HDAC activity of HeLa nuclear extracts (Fluor de Lys); assay type: biochemical, human; settings: 100 μM, average of at least 3 independent experiments in duplicates (Table 1)
HDAC6 = target: T1, HDAC6 (Homo sapiens, UniProt Q9UBN7); test: In vitro enzymatic assay HDAC6 (Fluor de Lys); assay type: biochemical
T1 construct: purchased Sigma Aldrich or Reaction Biology Corporation
T1 sequence (Q9UBN7 1-1215): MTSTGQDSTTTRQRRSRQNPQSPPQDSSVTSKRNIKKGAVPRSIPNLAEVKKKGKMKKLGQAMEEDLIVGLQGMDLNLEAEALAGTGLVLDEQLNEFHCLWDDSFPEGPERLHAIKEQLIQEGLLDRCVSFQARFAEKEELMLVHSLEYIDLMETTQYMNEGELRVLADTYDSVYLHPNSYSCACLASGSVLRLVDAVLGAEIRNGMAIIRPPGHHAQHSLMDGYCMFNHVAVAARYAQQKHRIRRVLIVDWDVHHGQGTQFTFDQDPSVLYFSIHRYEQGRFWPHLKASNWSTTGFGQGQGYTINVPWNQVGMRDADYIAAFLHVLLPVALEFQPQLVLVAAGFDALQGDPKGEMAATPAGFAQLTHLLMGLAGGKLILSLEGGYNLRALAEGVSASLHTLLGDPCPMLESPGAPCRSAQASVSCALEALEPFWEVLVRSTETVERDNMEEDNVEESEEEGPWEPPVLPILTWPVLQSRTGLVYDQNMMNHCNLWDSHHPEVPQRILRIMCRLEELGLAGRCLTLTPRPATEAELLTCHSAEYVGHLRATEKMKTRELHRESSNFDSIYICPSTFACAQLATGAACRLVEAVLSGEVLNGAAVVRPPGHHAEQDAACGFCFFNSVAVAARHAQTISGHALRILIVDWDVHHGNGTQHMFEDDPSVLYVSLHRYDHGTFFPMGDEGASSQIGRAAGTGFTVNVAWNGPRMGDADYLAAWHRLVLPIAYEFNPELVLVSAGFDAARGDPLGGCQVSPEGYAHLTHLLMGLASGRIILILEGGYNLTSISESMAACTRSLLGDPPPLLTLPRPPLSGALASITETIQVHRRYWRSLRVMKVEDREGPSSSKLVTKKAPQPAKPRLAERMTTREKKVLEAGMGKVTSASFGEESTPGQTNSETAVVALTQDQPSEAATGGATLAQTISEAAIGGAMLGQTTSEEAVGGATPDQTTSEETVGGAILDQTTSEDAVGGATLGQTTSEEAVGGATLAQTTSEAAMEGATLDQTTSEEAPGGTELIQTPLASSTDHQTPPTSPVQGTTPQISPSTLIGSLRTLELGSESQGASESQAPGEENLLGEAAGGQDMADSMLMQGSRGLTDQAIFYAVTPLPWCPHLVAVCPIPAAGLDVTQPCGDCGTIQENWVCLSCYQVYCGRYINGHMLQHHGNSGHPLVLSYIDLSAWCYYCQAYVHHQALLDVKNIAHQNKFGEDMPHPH

PAMPA-BBB = assay type: in vitro ADME
Description: The PAMPA experiment was performed according to the PAMPA-BBB method described by Di et al.[46]. Test compounds were dissolved at 20 mM in DMSO and then diluted 200 times using a buffer solution at pH 7.4 (prepared according to the Geigy table, containing 54 mM Na2HPO4 and 13 mM KH2PO4). The resulting solutions, containing the compounds at 100 μM (0.5% DMSO), represented the donor solutions at the initial time. A total of 280 μL of the donor solution were added in each well of a Teflon® 96-well microplate (Millipore MSSACCEPTOR) forming the donor compartments. Each well of a hydrophobic polyvinylidene fluoride (PVDF) 96-well microtitre filter plate (Multiscreen® MAIPN4550, 70% porosity, pore diameter 0.45 μm, cross-sectional area 0.3 cm^2) was impregnated with 4 μL of a polar brain lipids solution (20 mg/mL in dodecane, PBL obtained from Avanti Polar Lipids), placed under a fume hood and subjected to constant shaking at 75 rpm for approximately 10 min to homogeneously lay the artificial membrane. […] Each tested compound was analysed in triplicate. The effective passive permeability value (Pe) was calculated according the two-way flux equations, obtained from the Fick’s law[47]. The calculated effective passive permeability values Pe were considered relevant only if RSD < 15% as quality control was fulfilled. […]

In the case of `NNC(=O)c1ccc(COc2ccccc2Cl)cc1` [AK-14], the “HeLa % of inhibition at 100 μM” value [1] is reported as 2.7 ± 1.3%, the IC50 (HDAC6; average of at least 2 independent experiments in duplicates ± SEM) is reported as 12.8 ± 5.4 µM and the inhibition at 100 µM (HDAC6; read-out: HDAC6 % of inhibition at 100 µM) is reported as 70.7 ± 6%. For the same compound, the Papp at 18 h, 100 μM (PAMPA-BBB; PAMPA, pH 7.4, 100 μM donor, 18 hours, room temperature, read-out: effective passive permeability Pe (PAMPA-BBB)) was 6.5 ×10⁻⁶ cm/s and the PAMPA-BBB classification (PAMPA-BBB; pH 7.4) was “CNS +”.
